Assay results from patent US20230183388A1, “EXOPOLY[…] LACTIC ACID BACTERIUM AND USE THEREOF” (Asahi Kohsan Corporation, priority 2017, published 2023).

Molecular target: T1, hyaluronidase (Bos taurus, UniProt Q2YDK3)
T1 sequence (Q2YDK3 36-553): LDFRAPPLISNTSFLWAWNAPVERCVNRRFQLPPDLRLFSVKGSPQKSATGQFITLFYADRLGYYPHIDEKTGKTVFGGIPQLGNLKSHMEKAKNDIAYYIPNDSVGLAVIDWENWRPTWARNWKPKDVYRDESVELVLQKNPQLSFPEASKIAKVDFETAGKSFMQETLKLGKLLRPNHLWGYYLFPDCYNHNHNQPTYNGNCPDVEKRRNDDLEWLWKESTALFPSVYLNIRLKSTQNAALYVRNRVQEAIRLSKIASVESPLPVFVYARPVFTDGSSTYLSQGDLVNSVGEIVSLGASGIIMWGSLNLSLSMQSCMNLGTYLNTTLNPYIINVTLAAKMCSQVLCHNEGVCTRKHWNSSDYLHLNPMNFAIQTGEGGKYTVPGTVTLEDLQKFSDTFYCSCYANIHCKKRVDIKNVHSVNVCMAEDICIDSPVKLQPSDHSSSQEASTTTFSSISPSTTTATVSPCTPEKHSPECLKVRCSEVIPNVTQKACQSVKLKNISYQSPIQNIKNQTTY
Assay: Hyaluronidase activity inhibition of exopolysaccharides
Format: biochemical
Conditions: hyaluronidase enzyme solution (MP Biomedicals), activated with Compound 48/80 and CaCl2, sodium hyaluronate substrate, pH 4.0, 37° C.
Method: 5 μL of a hyaluronidase enzyme solution (MP Biomedicals, 4 mg/mL, 100 mM sodium acetate buffer (pH 4.0)) was added to 10 μL of an aqueous solution containing polysaccharides at an optional concentration, which was prepared from the polysaccharide sample containing the neutral polysaccharide fractions and the acidic polysaccharide fractions, the neutral polysaccharide fractions, and the acidic polysaccharide fractions, which were exopolysaccharides produced by the strain IJH-SONE68 and obtained in Example 4. The resultant mixture was incubated at 37° C. for 20 minutes. Thereafter, to the mixture, 10 μL of an enzyme-activating solution (0.5 mg/ml Compound 48/80 (manufactured by MP Biomedicals)), 3.75 mg CaCl2·2H2O, and 100 mM sodium acetate buffer (pH 4.0)) were added, and incubated again at 37° C. for 20 minutes. Subsequently, to the resultant mixture, 25 μL of a sodium hyaluronate solution (Wako Pure Chemical Industries, 0.8 mg/mL, 100 mM sodium acetate buffer (pH 4.0)) was added, and further reacted at 37° C. for 40 minutes. After the reaction, the reaction was terminated by adding 10 μL of 0.4 M NaOH aqueous solution. […] 40 μL of the reaction solution was mixed with 200 μL of p-DMAB solution (described below), the mixture was reacted at 37° C. for 20 minutes, and the absorbance at 585 nm was then measured. […]

Which “IC50 (hyaluronidase activity inhibition)” value does the source give for CC1(C)[C@@H](O[C@H]2O[C@H](C(=O)[O-])[C@@H](O)[C@H](O)[C@H]2O[C@@H]2O[C@H](C(=O)[O-])[C@@H](O)[C@H](O)[C@H]2O)CC[C@]2(C)[C@H]3C(=O)C=C4[C@@H]5C[C@@](C)(C(=O)O)CC[C@]5(C)CC[C@@]4(C)[C@]3(C)CC[C@@H]12.[K+].[K+] [Dipotassium glycyrrhizinate] here?
Its value is 530 µg/mL.
